Laboratory results as given in patent US7825278B2, “Substituted enaminones, their derivatives and uses thereof” (The Regents of the University of California, priority 2004, dated 2010).

Biological target: GABAA receptor complex (GRC)
Assay: [35S]TBPS binding assay (In Vitro Binding Assay 1)
Details: rat cortex P2 homogenate; 2 nM [35S]TBPS; 90 min at 25° C.
Method: [^35S]TBPS binding assay. The cortex from male Sprague-Dawley rats (weighing 160-200 g) was removed immediately after decapitation and dissected over ice. A P2 homogenate was prepared for binding assay as previously described (Gee, Mol. Pharmacol. 30: 218-225, 1986.). The tissue was homogenized in 0.32 M sucrose (J. T. Baker Chemical Co., Phillipsburg, N.J., USA) with a Teflon-coated pestle, followed by centrifugation at 1,000×g for 10 min. The supernatant was collected and centrifuged at 9,000×g for 20 min. The resultant P2 pellet was resuspended in ice-cold 50 mM sodium potassium phosphate (J. T. Baker) buffer (pH 7.4) containing 200 mM NaCl (J. T. Baker) and used immediately in binding assays. A 2 nM concentration of [^35S]TBPS (86 Ci/mmol; New England Nuclear, Boston, Mass., USA) was incubated with 100 μl of tissue homogenate (10% w/v) in the presence or absence of 5 μM GABA (Sigma Chem. Co., St. Louis, Mo.) and 5 μl aliquots of test drug dissolved in dimethyl sulfoxide (Sigma Chem. Co.) (≦10 μl of solvent used in all assays). At the concentration (≦1%) used, dimethyl sulfoxide had no effect on specific [^35S]TBPS binding. All assays were brought to a final volume of 1 ml with 50 mM sodium potassium phosphate buffer (pH 7.4) containing 200 mM NaCl. Non-specific binding was defined as binding in the presence of 2 μM TBPS (NEN, Boston, Mass.) and accounted for ˜30% of the total binding. Assays were terminated after a 90-min steady-state incubation at 25° C. by rapid filtration through glass fiber filters (no. 32; Schleicher & Schuell, Keene, N.H.). Filter-bound radioactivity was quantified by liquid scintillation spectrophotometry. The data were evaluated by nonlinear regression (GraphPad, Inc., San Diego, Calif.) to obtain IC50 (concentration at which half-maximal inhibition of radioligand occurs) values.

CCOC(=O)C(=CNc1ccc(F)cc1)C(=O)c1cccc2ccccc12 [ethyl α-[(4-fluorophenyl)amino]methylene]-β-oxo-1-naphthalenepropionate]
IC50: 0.2 µM
Imax (inhibition of [^35S]TBPS binding): 81%

C#Cc1ccc(NC=C(C(=O)OCC)C(=O)c2ccccc2Cl)cc1 [ethyl 2-chloro-α-[[(4-ethynylphenyl)-amino]methylene]-β-oxobenzenepropionate]
IC50: 0.01 µM
Imax (inhibition of [^35S]TBPS binding): 95%

CCOC(=O)C(=CNc1ccccc1Cl)C(=O)c1ccccc1Cl [ethyl 2-chloro-α-[[(2-chlorophenyl)-amino]methylene]-β-oxobenzenepropionate]
IC50: 0.42 µM
Imax (inhibition of [^35S]TBPS binding): 100%

CCOC(=O)C(=CNc1ccc(C#N)cc1)C(=O)c1ccccc1Cl [ethyl 2-chloro-α-[[(4-cyanophenyl)-amino]methylene]-β-oxobenzenepropionate]
IC50: 0.06 µM
Imax (inhibition of [^35S]TBPS binding): 100%

CCCNC(=O)C(=CNc1ccc(C)cc1)C(=O)c1ccccc1C [2-methyl-α-[[(4-methylphenyl)amino]methylene]-β-oxo-N-propyl-benzenepropanamide]
IC50: 0.1 µM
Imax (inhibition of [^35S]TBPS binding): 100%

CCOC(=O)C(=CNc1ccc(I)cc1)C(=O)c1ccccc1Cl [ethyl 2-chloro-α-[[(4-iodophenyl)-amino]methylene]-β-oxobenzenepropionate]
IC50: 0.02 µM
Imax (inhibition of [^35S]TBPS binding): 86%

C#Cc1ccc(NC=C(C(=O)NCCC)C(=O)c2ccccc2C)cc1 [α-[[(4-ethynylphenyl)amino]methylene]-2-methyl-β-oxo-N-propyl-benzenepropanamide]
IC50: 0.02 µM
Imax (inhibition of [^35S]TBPS binding): 95%
